Results on one compound are retold here after patent publication US20240216352A1 (priority 2022, published 2024).

The structures appear in SMILES notation. Several values for one entry are separate records, joined by “and”; a condition that tells them apart may be missing. Identical values can stand only once.

This test concerns participants with PPF. The test can be described thus: Phase 2 study, PPF cohort: efficacy (ppFVC, FVC). The test is classed as in vivo, human. Particulars: for Difference (S.E.) in rate of decline in FVC (% Predicted), 30 mg - placebo: 30 mg BID. The procedure:
A total of 123 participants with PPF were randomized. Participants (age ≥21 years) were randomized (1:1:1) to receive 30 mg or 60 mg Compound A or PBO twice daily for 26 weeks. […] Immunosuppressive medications (mycophenolate mofetil, mycophenolic acid, azathioprine and/or tacrolimus) were permitted only if dosing is stable for ≥6 months prior to screening. If receiving antifibrotic agents pirfenidone or nintedanib, patients had to receive a stable dosage for ≥3 months prior to screening and during the screening period; if not receiving pirfenidone or nintedanib, patients had to be naive to both drugs or not have received either 4 weeks prior to Day 1. A total of 47 (38.2%) subjects were receiving antifibrotic treatment (with or without immunosuppression therapy). Of those subjects, 34 were being treated with nintedanib and 13 with pirfenidone. Participants were stratified by usual interstitial pneumonia (UIP) pattern (presence versus absence) and background therapy (antifibrotics+/−ILD-targeted immunosuppression versus ILD-targeted immunosuppression alone versus none). UIP pattern was present in 52% of subjects and unclassifiable ILD was the most common disease categorization.
The study was not powered to detect statistical significance (no formal testing). No target effect size was defined in the study design. There were two estimand approaches for analysis: • Treatment Policy: Effect of treatment with dose reduction as part of treatment regimen.
While-On Treatment: Effect of treatment without dose reduction.
The main efficacy endpoint, rate of FVC decline (in % of predicted) from baseline to wk-26 in the PPF cohort, was estimated using a linear mixed-effects model utilizing all FVC timepoints. It was analyzed under a primary estimand (utilizing all data, treatment policy strategy), and under supplementary estimand (utilizing all data up to the point of dose reduction, while-on-treatment strategy). Analysis was performed in the overall population as well as in sub-groups by 1) background anti-fibrotic treatment or not 2) UIP radiographic pattern (presence or not). The mean baseline ppFVC was 66.7% for the PPF cohort.

In the case of `CCCN(C)C(=O)OCc1c(-c2ccc(O[C@H]3CCC[C@H](C(=O)O)C3)c(C)n2)nnn1C` [Compound A, (1S,3S)-3-((2-methyl-6-(1-methyl-5-(((methyl(propyl)carbamoyl)-oxy)methyl)-1H-1,2,3-triazol-4-yl)pyridin-3-yl)oxy)cyclohexane-1-carboxylic acid], the “Difference (S.E.) in rate of decline in FVC (% Predicted), 30 mg - placebo” value (shortened to “Difference … (% Predicted), 30 mg - placebo”) is given as 2.25 (2.13) % Predicted (UIP absent, primary estimand (treatment policy)); 2.26 (2.28) % Predicted (UIP absent, supplementary estimand (while on treatment)); 0.88 (1.6) % Predicted (UIP present, primary estimand (treatment policy)); 1.28 (1.61) % Predicted (UIP present, supplementary estimand (while on treatment)); 1.28 (1.63) % Predicted (not receiving antifibrotic treatment, primary estimand (treatment policy)); 1.34 (1.66) % Predicted (not receiving antifibrotic treatment, supplementary estimand (while on treatment)). For the same compound, the “Difference … (% Predicted), 30 mg - placebo” value (overall, primary estimand (treatment policy)) is 1.57 (1.29) % Predicted; the “Difference … (% Predicted), 30 mg - placebo” value (overall, supplementary estimand (while on treatment)) is listed as 1.78 (1.34) % Predicted; the “Difference … (% Predicted), 30 mg - placebo” value (receiving antifibrotic treatment, primary estimand (treatment policy)) is recorded as 1.99 (2.12) % Predicted; the “Difference … (% Predicted), 30 mg - placebo” value (receiving antifibrotic treatment, supplementary estimand (while on treatment)) is reported as 2.58 (2.25) % Predicted. Under “30 mg and 60 mg BID”, the “Dose response of efficacy (ppFVC decline)” value is recorded as “Clear dose response”. Further, the “Difference (S.E.) in rate of decline in FVC (% Predicted), 60 mg - placebo” value runs as follows: (60 mg BID, UIP absent, primary estimand (treatment policy)) 3.81 (2.02) % Predicted; (60 mg BID, UIP absent, supplementary estimand (while on treatment)) 3.80 % Predicted and 3.8 (2.17) % Predicted; (60 mg BID, UIP present, primary estimand (treatment policy)) 2.49 (1.61) % Predicted; (60 mg BID, UIP present, supplementary estimand (while on treatment)) 2.12 % Predicted and 2.12 (1.62) % Predicted; (60 mg BID, not receiving antifibrotic treatment, primary estimand (treatment policy)) 2.85 (1.6) % Predicted; (60 mg BID, not receiving antifibrotic treatment, supplementary estimand (while on treatment)) 2.61 % Predicted and 2.61 (1.63) % Predicted. Moreover, the “Difference (S.E.) in rate of decline in FVC (% Predicted), 60 mg - placebo” value runs as follows: (60 mg BID, overall, primary estimand (treatment policy)) 3.2 % Predicted and 3.15 (1.27) % Predicted; (60 mg BID, overall, supplementary estimand (while on treatment)) 2.9 % Predicted and 2.94 % Predicted and 2.94 (1.32) % Predicted; (60 mg BID, receiving antifibrotic treatment, primary estimand (treatment policy)) 3.74 (2.1) % Predicted; (60 mg BID, receiving antifibrotic treatment, supplementary estimand (while on treatment)) 3.28 % Predicted and 3.28 (2.21) % Predicted. The “Adjusted mean treatment difference in absolute change in FVC vs placebo” value (60 mg BID, week 26) is reported as 87.4 mL. Besides, the “Consistency of efficacy across sub-groups” value (irrespective of background antifibrotics or of UIP pattern) is given as “Efficacy consistent in all sub-groups”.
